Here are results for 17 compounds from patent US11208403B2, “Pyridone derivatives having tetrahydropyranylmethyl groups” (DAIICHI SANKYO COMPANY, LIMITED, priority 2014, dated 2021).

Usually pIC50 stands for the negative decadic logarithm of the IC50, by convention in mol/L.

pIC50: −log10 of the molar value. Structures can show the parent of a compound that is named as a salt. Where two headings read alike, the source gives them in different places.

One data set concerns NIH-3T3-Axl #7. The data set can be described thus: Antitumor test, NIH-3T3-Axl #7 tumors in NOG mice (Test Example 5). The data set is classed as in vivo, mouse. The conditions noted are these: NIH-3T3-Axl #7 in female NOG mice, 5 continuous doses. The source says:
(Test Example 5: Antitumor Test)
NIH-3T3-Axl #7 (cells prepared by the transfection of NIH3T3 cells with pLXSN retrovirus having an insert of full-length Axl cDNA) was block-transplanted into female NOG mice.

The test system of data set [1] is HCC827 lung cancer cells. The data set can be described thus: In vivo effect of combined use with erlotinib, HCC827 subcutaneous tumors (Test Example 6). The following applies: HCC827 in nude mice, 50 mg/kg bid in combination with 25 mg/kg erlotinib qd.
In data set [2] the test system is HCC827 lung cancer cells. The data set can be described thus: In vivo effect of combined use with erlotinib-2, erlotinib-resistant HCC827 tumors (Test Example 8). Set-up: species or system mouse.
Data set [3] deals with T1, human MER (intracellular domain, amino acids 528-999, GST fusion) (Homo sapiens (Human), UniProt Q12866). As to the kind of experiment: biochemical.
Data set [4] addresses T1, human MER (intracellular domain, amino acids 528-999, GST fusion). The conditions noted are these: read-out: Mer kinase IC50; cell-free, ATP concentration of 1 mM.
Data set [5] can be described thus: Ophthalmic histopathological examination after long-term administration (Test Example 4). Format: in vivo, mouse. The conditions noted are these: female NOG mice (n=8), 100 or 200 mg/kg. The source says: Preparation of dosing Solution:
4. Administration Method:
Four continuous doses, 1 drug holiday, 5 continuous doses, 2 drug holidays, 5 continuous doses, 2 drug holidays, 5 continuous doses, 2 drug holidays, and 4 continuous doses.
5. Pathological Examination
On the day following the termination date of the administration period, the mice were euthanized by blood letting under isoflurane anesthesia. Then, their eyeballs were collected, fixed in Davidson's solutions, then embedded in paraffin, and stained with hematoxylin eosin to prepare preparations, which were then histopathologically examined.

T1 sequence (Q12866 528-999): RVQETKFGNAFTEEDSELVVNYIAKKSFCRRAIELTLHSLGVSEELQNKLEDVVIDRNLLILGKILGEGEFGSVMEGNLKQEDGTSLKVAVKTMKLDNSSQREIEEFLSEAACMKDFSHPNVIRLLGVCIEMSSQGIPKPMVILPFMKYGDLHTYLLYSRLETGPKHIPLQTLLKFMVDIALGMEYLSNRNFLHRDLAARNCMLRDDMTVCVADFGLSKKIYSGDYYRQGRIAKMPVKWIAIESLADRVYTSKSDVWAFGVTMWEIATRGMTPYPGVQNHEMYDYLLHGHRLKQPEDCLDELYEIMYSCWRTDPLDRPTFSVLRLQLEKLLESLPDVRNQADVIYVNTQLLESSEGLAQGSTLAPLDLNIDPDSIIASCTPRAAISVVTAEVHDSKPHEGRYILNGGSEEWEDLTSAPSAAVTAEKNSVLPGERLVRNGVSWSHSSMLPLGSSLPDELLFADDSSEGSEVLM

With `COc1ccc(-c2cnc(N)c(-c3ccc(NC(=O)c4cn(CC(F)(F)F)cc(-c5ccc(F)cc5)c4=O)cc3)c2)cc1OC` [Compound A, reference compound], the antitumor effect result in the data set with NIH-3T3-Axl #7 (4.2 mg/kg oral bid) and in the data set on NIH-3T3-Axl #7 (25 mg/kg oral bid) was “distinct tumor regression effect” in each case. `COc1cc(-c2cnc(N)c(-c3ccc(NC(=O)c4cn(CC5CCOCC5)cc(-c5ccc(C)cn5)c4=O)cc3F)c2)ccc1OC[C@H]1COCCO1` [Compound B sulfate hydrate]: in the data set on HCC827 lung cancer cells [1], the body weight change entry was “No significant weight loss”. Besides, the “tumor size relative to start of administration (estimated tumor volume)” value in the data set with HCC827 lung cancer cells [1] is on record as “did not reach that at the start of administration even at Day 107”. Moreover, the “growth inhibition of erlotinib-resistant tumor” value with HCC827 lung cancer cells [2] (group 2: 50 mg/kg bid + 25 mg/kg erlotinib qd) and in the data set on HCC827 lung cancer cells [2] (group 3: 25 mg/kg bid + 25 mg/kg erlotinib qd) was “distinct growth inhibitory effect of erlotinib was confirmed” each time. The “estimated tumor volume of erlotinib-resistant tumor” value in the data set on HCC827 lung cancer cells [2] (group 2: 50 mg/kg bid + 25 mg/kg erlotinib qd, 116 to 140 days after transplantation) was “maintained even at 140 days after transplantation”. `COc1ccc(-c2cnc(N)c(-c3ccc(NC(=O)c4cn(CC5CCOCC5)cc(-c5ccc(C)cc5)c4=O)cc3)c2)cc1OC` [Example 2] had a pIC50 in data set [3] of 6.99. Turning to `COc1ccc(-c2cnc(N)c(-c3ccc(NC(=O)c4cn(CC5CCOCC5)cc(-c5ccc(OC(F)(F)F)cc5)c4=O)cc3)c2)cc1OC` [Example 7], the negative-log IC50 (pIC50) in data set [4] was below 5.40. The same measure, in the same setting: the figure for `Cc1ccc(-c2cn(CC3CCOCC3)cc(C(=O)Nc3ccc(-c4cc(-c5cc(C)nc(C)c5)cnc4N)nc3)c2=O)cc1` [Example 89] is below 5.40. `COc1cc(-c2cnc(N)c(-c3ccc(NC(=O)c4cn(CC5CCOCC5)cc(-c5ccc(C)cc5)c4=O)cn3)c2)c(OC)nn1` [Example 96]: the pIC50 in data set [4] was below 5.40. On the same count and under the same terms, the figure for `Cc1ccc(-c2cn(CC3CCOCC3)cc(C(=O)Nc3ccc(-c4cc(-c5cnn(CC6CCOCC6)c5)cnc4N)nn3)c2=O)cc1` [Example 102] is below 5.40; for `COc1ccc(-c2cnc(N)c(-c3ccc(NC(=O)c4cn(CC5CCOCC5)cc(-c5ccc(C)cn5)c4=O)nn3)c2)cc1OC` [Example 103] it is below 5.40; for `COc1cc(-c2cnc(N)c(-c3ccc(NC(=O)c4cn(CC5CCOCC5)cc(-c5ccc(C)cn5)c4=O)nn3)c2)ccc1OC[C@H]1COCCO1` [Example 105] it is below 5.40.

For `COc1cc(-c2cnc(N)c(-c3ccc(NC(=O)c4cn(CC5CCOCC5)cc(-c5ccc(C)s5)c4=O)nn3)c2)ccc1OC[C@H]1COCCO1` [Example 106], the negative-log IC50 (pIC50) in data set [4] is below 5.40. `Cc1ccc(-c2cn(CC3CCOCC3)cc(C(=O)Nc3ccc(-c4cc(-c5cnn(C[C@H]6COCCO6)c5)cnc4N)nn3)c2=O)cc1` [Example 108]: the pIC50 in data set [4] is below 5.40. Same read-out and setting: the result for `Cc1ccc(-c2cn(CC3CCOCC3)cc(C(=O)Nc3ccc(-c4cc(-c5cnn(C6CCOCC6)c5)cnc4N)nn3)c2=O)cc1` [Example 109] reads below 5.40; that for `COc1cc(-c2cnc(N)c(-c3ccc(NC(=O)c4cn(CC5CCOCC5)cc(-c5ccc(C)cc5)c4=O)nn3)c2)ccc1OCCN1CCOCC1` [Example 110, N-[6-(2-Amino-5-{3-methoxy-4-[2-(morpholin-4-yl)ethoxy]phenyl}pyridin-3-yl)pyridazin-3-yl]-5-(4-methylphenyl)-4-oxo-1-(tetrahydro-2H-pyran-4-ylmethyl)-1,4-dihydropyridine-3-carboxamide], below 5.40. Turning to `COc1ccc(-c2cnc(N)c(-c3cnc(NC(=O)c4cn(CC5CCOCC5)cc(-c5ccc(C)cc5)c4=O)cn3)c2)cc1OC` [Example 112, N-{5-[2-Amino-5-(3,4-dimethoxyphenyl)pyridin-3-yl]pyrazin-2-yl}-5-(4-methylphenyl)-4-oxo-1-(tetrahydro-2H-pyran-4-ylmethyl)-1,4-dihydropyridine-3-carboxamide], in data set [3], the pIC50 is below 5.40. Regarding `COc1cc(-c2cnc(N)c(-c3ccc(NC(=O)c4cn(CC5CCOCC5)cc(-c5ccc(C)cn5)c4=O)cc3F)c2)ccc1OC[C@H]1COCCO1` [Example 124], the “histological change in the retina” value in data set [5] is on record as “No histological change in the retinal”. For the compound `COc1cc(-c2cnc(N)c(-c3ccc(NC(=O)c4cn(CC5CCOCC5)cc(-c5ccc(C)cc5)c4=O)cc3)c2)ccc1OC[C@H]1COCCO1.CS(=O)(=O)O` [Example 128], the antitumor effect result in the data set on NIH-3T3-Axl #7 (3.1 mg/kg oral bid) was “almost completely inhibited tumor growth”; with NIH-3T3-Axl #7 (12.5 mg/kg oral bid) it was “distinct tumor regression effect”; in the data set with NIH-3T3-Axl #7 (50 mg/kg oral bid), “distinct tumor regression effect”. Besides, in data set [5], the “histological change in the retina” value is on record as “No histological change in the retinal”.

In the case of `COc1cc(-c2cnc(N)c(-c3ccc(NC(=O)c4cn(CC5(C#N)CCOCC5)cc(-c5ccc(F)cc5)c4=O)cc3)c2)ccc1OC[C@H]1COCCO1.CS(=O)(=O)O` [Example 129], the “histological change in the retina” value in data set [5] is on record as “No histological change in the retinal”.
